From patent publication US8791102B2, “Acetanilide sphingosine-1-phosphate receptor antagonists” (Exelixis, Inc., priority 2008, dated 2014)

The compounds below were run against T1, human S1P1 receptors (Homo sapiens, UniProt P21453) (assay: S1P1R antagonist assay (fluorescent membrane potential dye, cAMP readout)). Conditions: HEK293 cells expressing human S1P1 receptors and CNG channel; 500 nM NECA; S1P1R agonist 10 nM; 90 minutes; read-out: EC50 or IC50 value.
T1 construct: host or cells: HEK293
Assay type: cell-based
Text: The S1P1R antagonist assay is a fluorescent membrane potential dye measurement assay, indicative of intracellular cAMP changes due to G protein-coupled receptor activation. HEK293 cells engineered to express human S1P1 receptors and a cyclic nucleotide-gated (CNG) channel are obtained from BD Biosciences, 80300-250. The CNG channels are activated by elevated levels of cAMP, resulting in ion flux and cell membrane depolarization. Membrane depolarization is detected with a membrane potential dye. Stimulation of the cells with 5′-(N-ethylcarboxamido)adenosine (NECA), an A2b receptor agonist (Sigma, E2387), elicits an A2bR-dependent increase in cAMP.
Subsequent exposure of the cells to a S1P1R agonist suppresses the NECA induced increase in cAMP through S1P1R-specific signaling by inhibiting adenylyl cyclase and the formation of cAMP from ATP. The degree to which a test compound overcomes the S1P1R agonist suppression of the NECA induced increase in cAMP is a measure of S1P1R antagonist activity. Antagonist activity is quantified as the IC50 (i.e., the concentration needed to elicited one-half of the maximum response of the test compound) and/or as the EC50 (i.e., the concentration needed to elicited one-half of the NECA induced stimulation).
Day 1: Freshly thawed cells were plated into 384-well plates (Corning, 3683) at a density of 14,000 cells/well in 20 μL, complete media and incubated for 16 hours at 37° C., 5% CO2 and 99% relative humidity. Complete media included Dulbecco's modified Eagle's medium (Invitrogen, 11965-092), 10% Fetal bovine serum (Hyclone, SH30071.03), 250 μg/mL geneticin (Invitrogen, 10131-027), and 1 μg/mL Puromycin (Fluka, 82595).
Day 2: Membrane potential dye (20 μL, BD Biosciences, 341833) was added to each well and the plates were incubated for 2.5 hours at ambient temperature. Test compounds (20 μL) were added to the wells at various concentrations (≦10 μM, 1 to 3 dilutions) in a NECA base solution and incubated for 90 minutes in the presence of the S1P1R agonist {4-((4-phenyl-5-trifluoromethyl-2-thienyl)methoxy)benzyl}-3-azetidinecarboxylic acid (10 nM). The NECA-base solution contained Dulbecco's phosphate-buffered saline (Invitrogen, 14190-136), 2.5% DMSO (Fluka, 41648), 25 μM Ro 20-1724 (Sigma, B8279), and 500 nM NECA).
Assay plates were read with a PerkinElmer EnVision reader (Excitation 350 nm, Emission 590 nm) at time T=0 minutes, before compound addition and at time T=90 minutes. The signal was calculated as the ratio T90/T0. Data was analyzed in ActivityBase XE and graphs showing log of compound concentration (X-axis) vs. % activity (Y-axis) were generated for IC50 determinations. Percent activity was calculated with the following formula: (Signal−Agonist Control Signal)/(NECA Control Signal−Agonist Control Signal)×100.

T1 sequence (P21453 whole entry): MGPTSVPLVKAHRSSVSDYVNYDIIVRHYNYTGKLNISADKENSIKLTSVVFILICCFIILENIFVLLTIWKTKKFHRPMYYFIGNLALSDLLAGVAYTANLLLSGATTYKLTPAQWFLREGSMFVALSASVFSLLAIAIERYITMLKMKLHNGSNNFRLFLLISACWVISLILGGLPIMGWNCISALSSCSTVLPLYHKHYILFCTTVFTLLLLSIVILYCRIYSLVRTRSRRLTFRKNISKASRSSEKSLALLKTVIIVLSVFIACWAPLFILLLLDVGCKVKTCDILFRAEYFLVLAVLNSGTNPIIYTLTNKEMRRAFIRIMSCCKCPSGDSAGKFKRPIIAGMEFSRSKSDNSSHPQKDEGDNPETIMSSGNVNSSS

| Compound | IC50 [nM] |
| --- | --- |
| O=C(Nc1ccc(Oc2ccc(F)cc2)cc1)[C@@H]1C[C@@H](Cc2ccccc2)CN1C(=O)Cc1ccccc1 [Compound 31, (2S,4R)-4-benzyl-N-(4-(4-fluorophenoxy)phenyl)-1-(2-phenylacetyl)pyrrolidine-2-carboxamide] | ≤ 300 |
| Cc1cc(CC(=O)N2C[C@H](Cc3ccccc3)C[C@H]2C(=O)Nc2ccc(Oc3ccc(F)cc3)cc2)on1 [Compound 32, (2S,4R)-4-benzyl-N-(4-(4-fluorophenoxy)phenyl)-1-(2-(3-methylisoxazol-5-yl)acetyl)pyrrolidine-2-carboxamide] | ≤ 300 |
| O=C(Nc1ccc(Oc2ccc(F)cc2)cc1)[C@@H]1C[C@@H](Cc2ccccc2)CN1C(=O)CCCc1ccc2c(c1)OCCO2 [Compound 33, (2S,4R)-4-benzyl-1-(4-(2,3-dihydrobenzo[b][1,4]dioxin-6-yl)butanoyl)-N-(4-(4-fluorophenoxy)phenyl)pyrrolidine-2-carboxamide] | ≤ 300 |
| O=C(Nc1ccc(Oc2ccc(F)cc2)cc1)[C@@H]1C[C@@H](Cc2ccccc2)CN1C(=O)CC(F)(F)F [Compound 34, (2S,4R)-4-benzyl-N-(4-(4-fluorophenoxy)phenyl)-1-(3,3,3-trifluoropropanoyl)pyrrolidine-2-carboxamide] | ≤ 300 |
| CN(C)c1ccc(CC(=O)N2C[C@H](Cc3ccccc3)C[C@H]2C(=O)Nc2ccc(Oc3ccc(F)cc3)cc2)cc1 [Compound 35, (2S,4R)-4-benzyl-1-(2-(4-(dimethylamino)phenyl)acetyl)-N-(4-(4-fluorophenoxy)phenyl)pyrrolidine-2-carboxamide] | ≤ 300 |
| O=C(Nc1ccc(Oc2ccc(F)cc2)cc1)[C@@H]1C[C@@H](Cc2ccccc2)CN1C(=O)C1CCOC1 (stereo partly drawn) [Compound 36, (2S,4R)-4-benzyl-N-(4-(4-fluorophenoxy)phenyl)-1-(tetrahydrofuran-3-carbonyl)pyrrolidine-2-carboxamide] | ≤ 300 |
| Cc1[nH]c2ccccc2c1CC(=O)N1C[C@H](Cc2ccccc2)C[C@H]1C(=O)Nc1ccc(Oc2ccc(F)cc2)cc1 [Compound 37, (2S,4R)-4-benzyl-N-(4-(4-fluorophenoxy)phenyl)-1-(2-(2-methyl-1H-indol-3-yl)acetyl)pyrrolidine-2-carboxamide] | ≤ 300 |
| CCCCOCC(=O)N1C[C@H](Cc2ccccc2)C[C@H]1C(=O)Nc1ccc(Oc2ccc(F)cc2)cc1 [Compound 38, (2S,4R)-4-benzyl-1-(2-butoxyacetyl)-N-(4-(4-fluorophenoxy)phenyl)pyrrolidine-2-carboxamide] | ≤ 300 |
| O=C1CC[C@@H](C(=O)N2C[C@H](Cc3ccccc3)C[C@H]2C(=O)Nc2ccc(Oc3ccc(F)cc3)cc2)O1 [Compound 39, (2S,4R)-4-benzyl-N-(4-(4-fluorophenoxy)phenyl)-1-((S)-5-oxotetrahydrofuran-2-carbonyl)pyrrolidine-2-carboxamide] | ≤ 300 |
| O=C(Nc1ccc(Oc2ccc(F)cc2)cc1)[C@@H]1C[C@@H](Cc2ccccc2)CN1C(=O)[C@H](O)c1ccccc1 [Compound 40, (2S,4R)-4-benzyl-N-(4-(4-fluorophenoxy)phenyl)-1-((R)-2-hydroxy-2-phenylacetyl)pyrrolidine-2-carboxamide] | ≤ 300 |
| O=C(CN1CCN(c2ncccn2)CC1)N[C@@H](COCc1ccccc1)C(=O)Nc1ccc(Oc2ccc(F)cc2)cc1 [Compound 41, (S)-3-(benzyloxy)-N-(4-(4-fluorophenoxy)phenyl)-2-(2-(4-(pyrimidin-2-yl)piperazin-1-yl)acetamido)propanamide] | > 1000 |
| COc1cccc(N2CCN(CC(=O)N[C@@H](COCc3ccccc3)C(=O)Nc3ccc(Oc4ccc(F)cc4)cc3)CC2)c1 [Compound 42, (S)-3-(benzyloxy)-N-(4-(4-fluorophenoxy)phenyl)-2-(2-(4-(3-methoxyphenyl)piperazin-1-yl)acetamido)propanamide] | > 1000 |
| O=C(CN1CCC(N2CCCC2)CC1)N[C@@H](COCc1ccccc1)C(=O)Nc1ccc(Oc2ccc(F)cc2)cc1 [Compound 43, (S)-3-(benzyloxy)-N-(4-(4-fluorophenoxy)phenyl)-2-(2-(4-(pyrrolidin-1-yl)piperidin-1-yl)acetamido)propanamide] | > 1000 |
| O=C(Cc1coc(-c2ccccc2)n1)N[C@@H](COCc1ccc(F)cc1)C(=O)Nc1ccc(Oc2ccc(F)cc2)cc1 [Compound 44, (S)-3-(4-fluorobenzyloxy)-N-(4-(4-fluorophenoxy)phenyl)-2-(2-(2-phenyloxazol-4-yl)acetamido)propanamide] | > 1000 |

Further lines, results first:

| IC50 [nM] | Compound |
| --- | --- |
| > 1000 | O=C(CN1CCCC2CCCCC21)N[C@@H](COCc1ccccc1)C(=O)Nc1ccc(Oc2ccc(F)cc2)cc1 (stereo partly drawn) [Compound 45, (2S)-3-(benzyloxy)-N-(4-(4-fluorophenoxy)phenyl)-2-(2-(octahydroquinolin-1(2H)-yl)acetamido)propanamide] |
| > 1000 | CC1CCCN(CC(=O)N[C@@H](COCc2ccccc2)C(=O)Nc2ccc(Oc3ccc(F)cc3)cc2)C1 (stereo partly drawn) [Compound 46, (2S)-3-(benzyloxy)-N-(4-(4-fluorophenoxy)phenyl)-2-(2-(3-methylpiperidin-1-yl)acetamido)propanamide] |
| > 1000 | Cc1cc(Oc2ccc(F)cc2)ccc1NC(=O)[C@H](COCc1ccccc1)NC(=O)Cc1cnc[nH]1 [Compound 47, (S)-2-(2-(1H-imidazol-5-yl)acetamido)-3-(benzyloxy)-N-(4-(4-fluorophenoxy)-2-methylphenyl)propanamide] |
| ≤ 300 | Cc1ccccc1C[C@@H]1C[C@@H](C(=O)Nc2ccc(Oc3ccc(F)cc3)cc2)N(C(=O)Cn2nccn2)C1 [Compound 48, (2S,4R)-1-(2-(2H-1,2,3-triazol-2-yl)acetyl)-N-(4-(4-fluorophenoxy)phenyl)-4-(2-methylbenzyl)pyrrolidine-2-carboxamide] |
| ≤ 300 | O=C(Nc1ccc(Oc2ccc(F)cc2)cc1)[C@@H]1C[C@@H](Cc2cccc(F)c2)CN1C(=O)Cn1nccn1 [Compound 49, (2S,4R)-1-(2-(2H-1,2,3-triazol-2-yl)acetyl)-4-(3-fluorobenzyl)-N-(4-(4-fluorophenoxy)phenyl)pyrrolidine-2-carboxamide] |
| ≤ 300 | O=C(Nc1ccc(Oc2ccc(F)cc2)cc1)[C@@H]1C[C@@H](Cc2ccc(F)cc2)CN1C(=O)Cn1nccn1 [Compound 50, (2S,4R)-1-(2-(2H-1,2,3-triazol-2-yl)acetyl)-4-(4-fluorobenzyl)-N-(4-(4-fluorophenoxy)phenyl)pyrrolidine-2-carboxamide] |
| ≤ 300 | O=C(Nc1ccc(Oc2ccc(F)cc2)cc1)[C@@H]1C[C@@H](Cc2cccc(F)c2)CN1C(=O)Cn1cncn1 [Compound 51, (2S,4R)-1-(2-(1H-1,2,4-triazol-1-yl)acetyl)-4-(3-fluorobenzyl)-N-(4-(4-fluorophenoxy)phenyl)pyrrolidine-2-carboxamide] |
| ≤ 300 | O=C(Nc1ccc(Oc2ccc(F)cc2)cc1)[C@@H]1C[C@@H](Cc2ccc(F)cc2F)CN1C(=O)Cn1nccn1 [Compound 52, (2S,4R)-1-(2-(2H-1,2,3-triazol-2-yl)acetyl)-4-(2,4-difluorobenzyl)-N-(4-(4-fluorophenoxy)phenyl)pyrrolidine-2-carboxamide] |
| ≤ 300 | O=C(Nc1ccc(Oc2ccc(F)cc2)cc1)[C@@H]1C[C@@H](Cc2ccc(F)cc2F)CN1C(=O)Cn1cncn1 [Compound 53, (2S,4R)-1-(2-(1H-1,2,4-triazol-1-yl)acetyl)-4-(2,4-difluorobenzyl)-N-(4-(4-fluorophenoxy)phenyl)pyrrolidine-2-carboxamide] |
| ≤ 300 | O=C(Nc1ccc(Oc2ccc(F)cc2)cc1)[C@@H]1C[C@@H](Cc2ccccc2C(F)(F)F)CN1C(=O)Cn1cncn1 [Compound 54, (2S,4R)-1-(2-(1H-1,2,4-triazol-1-yl)acetyl)-N-(4-(4-fluorophenoxy)phenyl)-4-(2-(trifluoromethyl)benzyl)pyrrolidine-2-carboxamide] |
| ≤ 300 | Cc1ccccc1C[C@@H]1C[C@@H](C(=O)Nc2ccc(Oc3ccc(F)cc3)cc2)N(C(=O)Cn2cncn2)C1 [Compound 55, (2S,4R)-1-(2-(1H-1,2,4-triazol-1-yl)acetyl)-N-(4-(4-fluorophenoxy)phenyl)-4-(2-methylbenzyl)pyrrolidine-2-carboxamide] |
